Assay results: patent publication US20230148299A1, “FEM1B PROTEIN BINDING AGENTS AND USES THEREOF” (The Regents Of The University Of California, priority 2020, published 2023)

Assays:
FEM1B [1] = target: T1, FEM1B (Homo sapiens, UniProt Q9UK73); assay: EN106-alkyne pulldown and isoTOP-ABPP in HEK293T cells; assay type: cell-based; parameters: endogenous in cells; host or cells: HEK293T; conditions: EN106 10 μM 2 h (isoTOP-ABPP), EN106-alkyne pulldown
Experimental: FIGS. 14A-14C. […] FIG. 14A: Structures of EN106 and EN106-alkyne (NJH-2-030). FIG. 14B: EN106-alkyne pulldown. See Example 4 for experimental procedure. FIG. 14C: HEK293T cells were treated with vehicle or EN106 (10 μM) for 2 h and cell lysates were subjected to the isoTOP-ABPP protocol described in Example 4.
EN106-alkyne pulldown protocol. HEK293T cells were treated with DMSO or 10 μM NJH-2-030 in situ for 8 h. Cells were harvested, lysed via sonication and normalized to 2.0 mg/mL. Following normalization, 100 μL of each lysate sample was removed for Western blot analysis of input, and 500 μL of each lysate sample was incubated for 1 h at room temperature with 10 μL of 5 mM biotin picolyl azide (in water) (Sigma Aldrich 900912), 10 μL of 50 mM TCEP (in water), 30 μL of TBTA ligand (0.9 mg/mL in DMSO:t-butanol=1:4), and 10 μL of 50 mM Copper (II) Sulfate (12.5 mg/mL in water). Proteins were precipitated, washed 3×1 mL with cold MeOH, resolubilized in 1 mL of 1.2% SDS/PBS (w/v), heated for 5 min at 90° C., and centrifuged to remove any insoluble components. […] Proteins in each sample were then analyzed by Western blotting to look for enriched FEM1B versus non-enriched GAPDH.
IsoTOP-ABPP Chemoproteomic Experiment. […] Cells were lysed by probe sonication in PBS and protein concentrations were measured by BCA assay. […]

FEM1B [2] = target: T1, FEM1B; assay: Gel-based ABPP of EN106 against FEM1B and site identification; assay type: binding; conditions: C186
Text: FIGS. 12A-12B. […] FIG. 12A: Gel-based ABPP of EN106 against FEM1B. FIG. 12B: EN106 targets C186 in FEM1B. C186 is critical for substrate recognition of FEM1B. Sequence shown is: […] (residues 183-205 of SEQ ID NO:1).

FEM1B-FNIP1 = FEM1B-FNIP1 (Homo sapiens, UniProt Q9UK73); assay: Fluorescence polarization between FEM1B and FNIP1 (covalent ligand screen); assay type: binding; conditions: DMSO = 100, FP between FEM1B and FNIP1
FEM1B-FNIP1, sequence (Q9UK73 whole entry): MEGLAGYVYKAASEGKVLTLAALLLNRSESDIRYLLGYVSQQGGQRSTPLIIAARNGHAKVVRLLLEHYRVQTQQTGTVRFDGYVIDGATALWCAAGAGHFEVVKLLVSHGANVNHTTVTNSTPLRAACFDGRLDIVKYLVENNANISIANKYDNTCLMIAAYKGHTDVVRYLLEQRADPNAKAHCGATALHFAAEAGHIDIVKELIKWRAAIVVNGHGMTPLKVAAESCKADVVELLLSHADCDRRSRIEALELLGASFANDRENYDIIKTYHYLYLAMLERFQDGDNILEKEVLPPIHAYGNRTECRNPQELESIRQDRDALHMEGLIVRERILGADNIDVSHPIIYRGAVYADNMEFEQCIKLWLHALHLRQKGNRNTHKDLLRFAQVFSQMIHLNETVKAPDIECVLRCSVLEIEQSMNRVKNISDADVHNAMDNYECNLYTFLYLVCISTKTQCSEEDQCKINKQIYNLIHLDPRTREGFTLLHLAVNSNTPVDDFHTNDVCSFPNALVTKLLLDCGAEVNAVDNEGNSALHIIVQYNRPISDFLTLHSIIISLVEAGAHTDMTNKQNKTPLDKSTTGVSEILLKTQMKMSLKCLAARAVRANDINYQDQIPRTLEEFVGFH
Text: FIG. 11. Fluorescence polarization screen to identify functional FEM1B-FNIP1-targeting covalent ligands.
FEM1B binds a conserved central degron in FNIP1. Deletion analysis of FNIP1 identifies a stretch of 20 amino acids that is required for its binding to FEM1B and its proteasomal degradation. FNIP1 variants were expressed in cells and tested for interaction with ^FLAGFEM1B by co-immunoprecipitation, and for degradation by measuring their abundance in the presence or absence of FEM1B. The FNIP1 degron is required for FEM1B binding and proteasomal degradation. […] FEM1B variants were immunoprecipitated and bound FNIP1 and FLCN were detected by Western blotting. The FNIP1 degron is sufficient to mediate FEM1B-dependent degradation. The FNIP1 degron was fused to GFP (GFP^degron) and expressed from the same plasmid as an IRES controlled mCherry. mCherry provides normalization for GFP fluorescence in each cell. […] Levels of GFP^degron and mCherry were determined by FACS, and their ratio is depicted for presence or absence of FEM1B variants. Deletion of FEM1B prevents FNIP1-degron dependent degradation. The FEM1B locus was deleted in 293T cells using CRISPR/Cas9. Cells were transfected with the GFP^degron/mCherry reporter, and analyzed for GFP and mCherry fluorescence by FACS. FEM1B directly binds the FNIP1 degron in vitro. A TAMRA-labeled FNIP1 degron peptide was incubated with purified FEMIB or the control CRL1 adaptor FBXL17, and binding was measured by fluorescence polarization of the peptide. The FNIP1 degron is sufficient to mediate CUL2^FEM1B-dependent ubiquitylation. The TAMRA-labeled FNIP1 degron was incubated with recombinant CUL2^FEM1B (unmodified or NEDD8-modified), E1, ubiquitin, ATP and the E2 enzymes UBE2D3 and/or UBE2R1. Ubiquitylation was monitored by gel electrophoresis and fluorescence detection.

[3] = system: GFP-Fnip1 degron reporter; assay: GFP-Fnip1 degron reporter (GFP/mCherry) by flow cytometry; assay type: cell-based; conditions: HEK293T cells, reporter +/- Fem1b, 20 μM, 8 hours
Experimental: HEK293T cells were transfected 24 hours before flow cytometery with the GFP-Fnip1 degron reporter+/−Fem1b.
FNIP1 variants were expressed in cells and tested for interaction with ^FLAGFEM1B by co-immunoprecipitation, and for degradation by measuring their abundance in the presence or absence of FEM1B. […] FEM1B variants were immunoprecipitated and bound FNIP1 and FLCN were detected by Western blotting. […] The FNIP1 degron was fused to GFP (GFP^degron) and expressed from the same plasmid as an IRES controlled mCherry. mCherry provides normalization for GFP fluorescence in each cell. […] Levels of GFP^degron and mCherry were determined by FACS, and their ratio is depicted for presence or absence of FEM1B variants. […] Cells were transfected with the GFP^degron/mCherry reporter, and analyzed for GFP and mCherry fluorescence by FACS. […] A TAMRA-labeled FNIP1 degron peptide was incubated with purified FEMIB or the control CRL1 adaptor FBXL17, and binding was measured by fluorescence polarization of the peptide. […] The TAMRA-labeled FNIP1 degron was incubated with recombinant CUL2^FEM1B (unmodified or NEDD8-modified), E1, ubiquitin, ATP and the E2 enzymes UBE2D3 and/or UBE2R1. Ubiquitylation was monitored by gel electrophoresis and fluorescence detection.

T1 sequence (Q9UK73 whole entry): as above

## N#CCCN(C(=O)CCl)c1ccc2c(c1)OCCO2 [EN106, 2-chloro-N-(2-cyanoethyl)-N-(2,3-dihydrobenzo[b][1,4]dioxin-6-yl)acetamide]
FEM1B [1]
  FEM1B engagement in cells: engages FEM1B in cells
FEM1B [2]
  covalent targeting of FEM1B cysteine: covalently targets C186 on FEM1B
FEM1B-FNIP1; compound at 5 μM, read-out: Normalized FP 5 μM
  remaining activity at 5 µM: 50.6%
FEM1B-FNIP1; compound at 50 μM, read-out: Normalized FP 50 μM
  activity at 50 µM: 4.2%
[3]
  inhibition of FEM1B in cells / FNIP1 stabilization: inhibits endogenous and overexpressed FEM1B in cells and stabilizes FNIP1
